# Assay results as given in publication PMC11562385 (RSC Chemical Biology, 2024).
# “Also recorded” adds a separate entry of the source. Peptide text beside a SMILES is read from it.
# Assays:
# PD1:PDL1 interaction [1] = molecular target: T1, PD1:PDL1 interaction (Homo sapiens, UniProt Q15116); experiment: PD1/PDL1 immunoblocking ELISA (BPS Bioscience kit cat # 72005); format: binding
# T1 construct: purchased BPS Bioscience 72005
# PD1:PDL1 interaction [2] = molecular target: T1, PD1:PDL1 interaction; experiment: Time-course competitive inhibition of PD1:PDL1 under saturating PDL1 (1:12); format: binding; conditions: inhibitor preincubated, 3 μM; PD1:PDL1 1:12; two hours; n = 4
# Description: Time-course experiments were repeated by preincubating the non-covalent inhibitor 2c in one case, or the covalent ADAPTins2ca and 2cb at the same concentration.
# N-deglycosylated PD1 = experiment: SDS-PAGE analysis of covalent conjugation to N-deglycosylated PD1; format: biochemical; conditions: N-deglycosylated PD1, 12 h, 37 °C, pH 6.5, peptide/protein 4:1 to 16:1
# [3] = molecular target: T2, cell surface PD1 on CD3+/CD8+ cells of h-PBMCs (Homo sapiens, UniProt Q15116); experiment: In cellulo PD1 blockade on h-PBMCs by flow cytometry; format: cell-based; conditions: h-PBMC cultures, 30 h, n = 3
# T2 construct: endogenous in cells; host or cells: healthy human PBMCs (CD45+, CD3+/CD8+ gated)
# Text: (§1) Then, an ex vivo immune cell culture system using h-PBMCs and exhausted PBMCs from a melanoma patient (e-PBMCs) was used to determine the efficacy of selected ADAPTin peptides on T-effector cells (Fig. 6).[91,92] T-cell exhaustion typically leads to a reduction in cytokine release, cytotoxic activity, as well as slower T-cell proliferation.
# h-PBMCs = experiment: Ex vivo cytokine secretion assay, healthy PBMCs; format: cell-based, human; conditions: h-PBMCs reactivated with anti-CD2/28, 6 h incubation, n = 3
# Description: as §1, with “proliferation. […] Cytokines concentrations measured at 72 h post-treatment were in most cases over the detection limit range further indicating the effectiveness of our compounds over time.” for “proliferation.”
# (§2) Non-covalent ADAPTin2c/2p were used as negative control. (A) Levels of inflammatory cytokines measured by flow-cytometry (FACS) after 6 h incubation with electrophilic ADAPTins. Error bars indicate the mean ± SD, (n = 3). (B) Rescue of exhausted PBMCs from a melanoma patient. Levels of inflammatory cytokines and granule-associated proteins released (6 h) measured by FACS (healthy and untreated exhausted PBMCs: h-/e-PBMCs used as positive and negative controls respectively). Error bars indicate the avg ± SD, (n = 2).
# (§3) Ex Vivo Cytokine Secretion Assay.
# Normal PBMCs (from healthy donor) and exhausted PBMCs isolated from the blood sample of a melanoma patient were activated for 48 h before using anti-CD2/28 monoclonal antibodies with IL-2 (2 ng/mL) as mentioned above. […] Samples were transferred to a 96-well plate to read on a flow cytometer. […]
# e-PBMCs = experiment: Ex vivo cytokine secretion assay, exhausted PBMCs from a melanoma patient; format: cell-based, human; conditions: e-PBMC, 6 h, LEGENDplex
# Description: as §1, with “proliferation. […] Cytokines concentrations measured at 72 h post-treatment were in most cases over the detection limit range further indicating the effectiveness of our compounds over time.” for “proliferation.”
# as §2, §3
# Normal PBMCs (from healthy donor) and exhausted PBMCs isolated from the blood sample of a melanoma patient were activated for 48 h before using anti-CD2/28 monoclonal antibodies with IL-2 (2 ng/mL) as mentioned above. After 48 h, PBMCs were washed and incubated with a series of ADAPTins for 6 h. After treatment, media supernatant was collected for cytokine release measurements using the LEGENDplex™ human CD8/NK (13-plex) panel (BioLegend, cat no. 740267). Briefly, samples were mixed with assay buffer and human (13-plex) mixed-beads and plated on the 96-well filter plate. Samples were incubated for 2 h at room temperature, washed, and resuspended beads with detection antibodies according to manufacturer's protocol. Samples were transferred to a 96-well plate to read on a flow cytometer. The flow cytometer and data acquisition software setting were used according to the manufacturer's instructions. Flow analysis was obtained using a CytoFLEX-S flow cytometer equipped with 3 lasers (488 nm blue, 405 nm violet, and 638 nm from Beckman).
# Table S9. Raw data of cytokine secretion assay (n=2).
# Cytokine assay IL-2 TNF-α IFN-γ Perforin […]
# PD1:PDL1 interaction [4] = conditions: read-out: apparent Ki, PD1:PDL1 interaction; cited from earlier work
# Text: While downsizing a full antibody drug into a single CDR-H3 “hot loop”, one should anticipate a significant loss in binding affinity and specificity. […] The PD1 ...
# T1 sequence (Q15116 25-167 limits assumed): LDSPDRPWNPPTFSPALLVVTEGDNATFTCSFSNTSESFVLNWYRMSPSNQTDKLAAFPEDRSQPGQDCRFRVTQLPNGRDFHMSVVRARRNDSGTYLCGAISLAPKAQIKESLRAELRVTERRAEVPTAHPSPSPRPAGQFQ
# T2 sequence (Q15116 25-288): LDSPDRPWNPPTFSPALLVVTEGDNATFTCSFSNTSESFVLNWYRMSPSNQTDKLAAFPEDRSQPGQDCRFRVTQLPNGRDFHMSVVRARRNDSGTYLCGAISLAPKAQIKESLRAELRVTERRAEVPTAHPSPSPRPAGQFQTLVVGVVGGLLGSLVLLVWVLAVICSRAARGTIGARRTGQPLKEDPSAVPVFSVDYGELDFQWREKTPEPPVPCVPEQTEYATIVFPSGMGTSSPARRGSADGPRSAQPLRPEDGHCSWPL
smiles,measurement,setting,value
CSCC[C@H](NC(=O)[C@H](CC(=O)O)NC(=O)[C@H](Cc1ccccc1)NC(=O)[C@H](CCCNC(=N)N)NC(=O)[C@H](Cc1ccc(O)cc1)NC(=O)[C@H](CC(=O)O)NC(=O)[C@H](CCCNC(=N)N)NC(=O)[C@H](CCCNC(=N)N)NC(=O)[C@H](C)NC(=O)[C@@H](NC(=O)[C@H](Cc1c[nH]c2ccccc12)NC(=O)[C@@H](N)CCCNC(=N)N)C(C)C)C(=O)NCC(=O)N[C@@H](Cc1ccccc1)C(=O)N[C@@H](CC(=O)O)C(=O)N[C@@H](Cc1ccc(O)cc1)C(=O)N[C@@H](Cc1c[nH]c2ccccc12)C(=O)N[C@H](C(=O)N[C@@H](Cc1c[nH]c2ccccc12)C(=O)N[C@@H](CCC(=O)O)C(=O)O)C(C)C [2c] (H-RWVARRDYRFDMGFDYWVWE-OH),EC50,"PD1:PDL1 interaction [1]; ELISA, mean of three independent experiments, read-out: EC50 Value",0.249 µM
same,LE (ligand efficiency),"PD1:PDL1 interaction [1]; LE = -RTln(EC50)/HA, HA = non-hydrogen atoms omitting the strap (RWV•••VWE)",0.07
same,outcome of time-course competition with excess PDL1,PD1:PDL1 interaction [2],fully displaced by PDL1; also recorded: easily displaced
same,covalent conjugation to PD1 on SDS-PAGE (in words),N-deglycosylated PD1,No conjugation observed
same,PD1 blockade on CD3+/CD8+ T-effector cells,[3],< 20%
same,"increase in TNF-α, IFN-γ and perforin levels",h-PBMCs,no detectable activity
same,IFN-γ,e-PBMCs; replicate 1,4131.52 pg/mL
same,IL-2,e-PBMCs; replicate 1,0.44 pg/mL
same,Perforin,e-PBMCs; replicate 1,217.39 pg/mL
same,TNF-α,e-PBMCs; replicate 1,483.47 pg/mL
same,IFN-γ,e-PBMCs; replicate 2,7535.05 pg/mL
same,IL-2,e-PBMCs; replicate 2,266.63 pg/mL
same,Perforin,e-PBMCs; replicate 2,381.31 pg/mL
same,TNF-α,e-PBMCs; replicate 2,1150.47 pg/mL
same,Ki,PD1:PDL1 interaction [4],0.041 µM
